{"source": "patent US20240293405A1", "about": "“(1H-PYRROLO[2,3-B]PYRIDIN-1-YL)PYRIMIDIN-2-YL-AMINO-PHENYL-ACRYLAMIDE INHIBITORS OF EGFR FOR USE IN THE TREATMENT OF BRAIN TUMORS” (Dana-Farber Cancer Institute, Inc., priority 2021, published 2024)", "key": {"[1]": {"test_system": "orthotopic U251-EGFRvIII tumors", "assay": "Orthotopic U251-EGFRvIII xenograft in mice", "format": "in vivo, mouse", "experimental": "Gefitinib and erlotinib were purchased from Selleck Chemicals. Lapatinib was purchased from MedChemexpress. […] Compound 1 was synthesized by Pharmaron (Wang et al., bioRxiv, 2020.2003.2009.984500). For in vitro studies, compounds were dissolved in DMSO. For in vivo studies, Compound 1 was dissolved in 10% NMP/90% PEG300 and administered by oral gavage at 37.5 mg/kg or 75 mg/kg daily.\nCells (100,000 cells resuspended in 1 μl PBS) were intracranially injected into the right striatum (0 mm anterior, 2 mm lateral, and 2.5 mm ventral to bregma) of 8-10 week-old ICR-SCID mice. Animals were monitored daily for development of neurological defects.\nCells were transduced with lentiviral luciferase (HIV-Luc-zsGreen, addgene #39196). Bioluminescence signals from luciferase-expressing cells in live mice were recorded 10 minutes after intraperitoneal injection of D-luciferin (80 mg/kg) (Gold Biotechnology) with IVIS Lumina III Imaging System (PerkinElmer). The signals were analyzed with Living Image Software (PerkinElmer).\nTo evaluate the in vivo activity of Compound 1 in GBM with mutant EGFR, U251-EGFRvIII GBM cells expressing luciferase was generated to facilitate monitoring drug response in vivo by bioluminescence-imaging analysis. […]"}, "[2]": {"assay": "Brain and plasma exposure after single oral dose", "format": "in vivo, Sprague Dawley rats", "conditions": "own data, oral dosing in rats", "from_the_text": "Genfitinib concentrations were quantitated by LC-MS/MS from brain and plasma from Group 1 animals."}, "P-gp, Bcrp": {"test_system": "P-gp, Bcrp", "assay": "Efflux liability", "format": "in vitro ADME", "conditions": "Compound 1, own data", "from_the_text": "Data obtained in a previously published report on brain penetration of EGFR TKIs in GMB was compared to brain penetrance data described herein (Table 5). […] Each of these drugs, with the exception of vizimpro, appeared to be a substrate of P-gp and Bcrp (efflux transporter proteins)."}, "hERG": {"target": "hERG (Homo sapiens, UniProt Q12809)", "sequence (Q12809 whole entry)": "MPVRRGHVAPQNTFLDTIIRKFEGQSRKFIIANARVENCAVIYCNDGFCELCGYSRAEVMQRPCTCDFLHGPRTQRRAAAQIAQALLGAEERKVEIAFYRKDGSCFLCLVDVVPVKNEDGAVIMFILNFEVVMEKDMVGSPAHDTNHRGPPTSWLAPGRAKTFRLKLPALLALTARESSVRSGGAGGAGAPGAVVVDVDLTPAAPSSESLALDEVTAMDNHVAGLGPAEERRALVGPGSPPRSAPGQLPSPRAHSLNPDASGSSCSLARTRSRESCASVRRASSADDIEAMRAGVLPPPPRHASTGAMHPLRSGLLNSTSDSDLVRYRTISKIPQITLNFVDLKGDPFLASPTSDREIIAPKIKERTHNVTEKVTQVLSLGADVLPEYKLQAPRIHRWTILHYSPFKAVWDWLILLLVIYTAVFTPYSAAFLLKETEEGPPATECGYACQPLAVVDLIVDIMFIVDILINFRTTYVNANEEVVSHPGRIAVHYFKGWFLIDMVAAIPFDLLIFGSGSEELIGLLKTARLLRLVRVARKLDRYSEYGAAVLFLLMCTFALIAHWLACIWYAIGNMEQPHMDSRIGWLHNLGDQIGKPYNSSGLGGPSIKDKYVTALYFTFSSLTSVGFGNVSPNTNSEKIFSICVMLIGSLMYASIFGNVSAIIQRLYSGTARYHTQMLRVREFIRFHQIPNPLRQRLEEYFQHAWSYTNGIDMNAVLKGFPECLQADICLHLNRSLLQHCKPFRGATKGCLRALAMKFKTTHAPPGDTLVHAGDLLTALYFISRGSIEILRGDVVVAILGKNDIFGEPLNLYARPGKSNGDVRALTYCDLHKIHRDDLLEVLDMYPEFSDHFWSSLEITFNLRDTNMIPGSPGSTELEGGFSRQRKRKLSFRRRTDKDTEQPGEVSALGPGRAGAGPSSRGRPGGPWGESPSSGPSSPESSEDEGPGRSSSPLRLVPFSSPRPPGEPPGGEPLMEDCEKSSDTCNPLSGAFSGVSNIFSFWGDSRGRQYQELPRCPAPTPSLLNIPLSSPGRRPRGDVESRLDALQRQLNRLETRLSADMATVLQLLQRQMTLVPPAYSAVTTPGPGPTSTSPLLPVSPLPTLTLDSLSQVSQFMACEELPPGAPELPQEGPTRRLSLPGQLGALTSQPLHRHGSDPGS", "assay": "hERG assay (HEK cells)", "format": "cell-based", "experimental": "Compound 1 and/or Compound 2 (active/major metabolite) were evaluated for off-target activity in a large panel of receptors and ion channels, including a human ether-i-go-go-related gene (hERG) assay. Compound 1 was assessed comprehensively in Good Laboratory Practice (GLP) safety pharmacology studies, including studies of cardiovascular, respiratory and central nervous system function."}}, "note": "Entries after “also recorded” stand apart in the source; their conditions may differ."}
{"smiles": "C=CC(=O)Nc1cc(Nc2nccc(-n3ccc4cccnc43)n2)c(OC)cc1N(C)CCN(C)C", "note": "[Compound 1, N-(5-((4-(1H-pyrrolo[2,3-b]pyridin-1-yl)pyrimidin-2-yl)amino)-2-((2-(dimethylamino)ethyl)(methyl)amino)-4-methoxyphenyl)acrylamide]", "values": [{"measurement": "body weight during treatment", "setting": "[1]; 37.5 and 75 mg/kg PO QD", "result": "stable body weight; also recorded: no significant body weight loss"}, {"measurement": "luminescence signals of tumors", "setting": "[1]; 37.5 and 75 mg/kg, dose-dependent", "result": "reduced the luminescence signals"}, {"measurement": "Brain Penetration (% of B/P ratio in preclinical model)", "setting": "[2]", "result": "2830% (oral)"}, {"measurement": "Efflux Liability", "setting": "P-gp, Bcrp", "result": "Not a substrate"}, {"measurement": "IC50", "setting": "hERG", "result": 1900, "unit": "nM"}, {"measurement": "hERG IC100", "setting": "hERG", "result": "~30", "unit": "µM"}]}
